Laboratory results published in patent publication US8158559B2, “Herbicidal combination comprising dimethoxytriazinyl-substituted difluoromethanesulfonylanilides” (Bayer Cropscience AG, priority 2008, dated 2012).
Read-outs that look alike come from different tables or passages of the source.

Assays:
Assay in all cases: Post-emergence action against weeds, greenhouse pot test, visual scoring
Format in all cases: in vivo
[1] = test system: Lolium multiflorum (LOLMU); settings: read-out: % activity found; for inhibition at 4 g/ha: dosage 4 g of ai/ha
Procedure: (§1) Seeds or rhizome pieces of mono- and dicotyledonous harmful and useful plants were placed in peat pots (diameter 4 cm) filled with sandy loam and then covered with soil. The pots were kept in a greenhouse under optimum conditions. In addition, harmful plants encountered in paddy rice cultivation were cultivated in pots with a water level 2 cm above the soil surface.
(§2) About three weeks after the start of the cultivation, the test plants were treated at the 2- to 3-leaf stage. The herbicides, formulated as powder or liquid concentrates, were, either alone or in the combinations according to the invention, sprayed in various dosages on to the green parts of the plants using an application rate of 600 l of water/ha (converted). For further cultivation of the plants, the pots were then again kept under optimum conditions in a greenhouse.
(§3) The visual scoring of the herbicidal effects was carried out in intervals up to 21 days after the treatment. Scoring was carried out in percent in comparison to the untreated control plants. 0%=no herbicidal activity, 100%=complete herbicidal activity=complete kill.
(§4) The percentages from the treatments with the herbicides alone (=individual application) and with the combinations according to the invention (=mixtures) were employed to calculate interactions using the method of Colby. When the observed efficacies of the mixtures exceed the formal sum of the values of the tests with individual applications, they also exceed the expected value according to Colby, which is calculated using the formula below (cf. S. R. Colby; in Weeds 15 (1967) pp. 20 to 22): E=A+B−(A×B/100)
(§5) Here: • A, B=activity of components A and B in percent at a dosage of a and b g of ai/ha (=gramm of active substance per hectare), respectively. • E=expected value in % at a dosage of a+b g of ai/ha. Results
(§6) The combinations according to the invention of herbicides from group (A) with herbicides from group (B) were tested on a broad spectrum of important harmful plants (weed grasses, broad-leaved weeds/Cyperaceae) and useful plants: Triticum aestivum (TRZAS), Stellaria media (STEME), Lolium multiflorum (LOLMU), Veronica persica (VERPE), Alopecurus myosuroides (ALOMY), Matricaria inodora (MATIN), Brassica napus (BRSNW), Viola tricolor (VIOTR), Avena fatua (AVEFA), Amaranthus retroflexus (AMARE), Zea mays (ZEAMX), Pharbitis purpurea (PHBPU), Setaria viridis (SETVI), Fallopia (ex Polygonum) convolvulus (POLCO), Echinochloa crus-galli (ECHCG), Abuthilon theophrasti (ABUTH), Cyperus esculentus (CYPES), Oryza sativa (ORYSA).
(§7) Of particular interest are the results shown in the tables (Tab.) below, where the following key is used: • (1) EPPO code (former Bayer code) for the treated plant (see above) • (2) Time of scoring: DAT (days after treatment) • (3) Component A tested (identifying number) • (4) Component B tested (identifying number) • (5) Dosage component A [g of ai/ha] • (6) Dosage component B [g of ai/ha] • (7) % activity found • (8) E value (calculated according to Colby; see above) • (9) Comments: “SYNERGY”=synergistic interaction (E value<% activity found); “SAFENING”=safener action on useful plant (E value>% activity found)

Oryza sativa (ORYSA) = settings: read-out: % activity found; for inhibition at 4 g/ha: dosage 4 g of ai/ha; for inhibition at 12 g/ha: dosage 12 g of ai/ha
Procedure: as §1, §2, §3, §4, §5, §6, §7

Zea mays (ZEAMX) = settings: read-out: % activity found; for inhibition at 4 g/ha: dosage 4 g of ai/ha
Procedure: as §1, §2, §3, §4, §5, §6, §7

[2] = test system: Triticum aestivum (TRZAS); settings: read-out: % activity found; for inhibition at 12 g/ha: dosage 12 g of ai/ha
Procedure: as §1, §2, §3, §4, §5, §6, §7

Avena fatua (AVEFA) = settings: 504 h, read-out: % activity found
Procedure: as §1, §2, §3, §4, §5, §6, §7

Viola tricolor (VIOTR) = settings: 240 h, read-out: % activity found
Procedure: as §1, §2, §3, §4, §5, §6, §7

[3] = test system: Matricaria inodora (MATIN); settings: Tripleurospermum inodorum, 504 h, read-out: % activity found
Procedure: as §1, §2, §3, §4, §5, §6, §7

[4] = test system: Cyperus esculentus (CYPES); settings: 504 h, read-out: % activity found
Procedure: as §1, §2, §3, §4, §5, §6, §7

[5] = 240 h, 10 DAT, dosage 12 g of ai/ha
[6] = 504 h, 21 DAT, dosage 12 g of ai/ha

COc1cc(OC)nc(Oc2cccc(Oc3nc(OC)cc(OC)n3)c2C(=O)O)n1 [B2-1, sodium 2,6-bis[(4,6-dimethoxy-2-pyrimidinyl)oxy]benzoate, reference compound]
inhibition at 12 g/ha ([1]; 240 h): 40%
inhibition at 12 g/ha ([1]; 504 h): 20%
inhibition at 36 g/ha ([1]; 504 h): 70%
inhibition at 36 g/ha (Oryza sativa (ORYSA); 504 h): 70%
inhibition at 12 g/ha (Zea mays (ZEAMX); 240 h): 40%
inhibition at 36 g/ha (Zea mays (ZEAMX); 240 h): 40%
inhibition at 12 g/ha (Zea mays (ZEAMX); 504 h): 0%
inhibition at 36 g/ha (Zea mays (ZEAMX); 504 h): 0%

COc1nc(OC)nc(C(=O)c2cccc(F)c2N(C)S(=O)(=O)C(F)F)n1 [A-1]
inhibition at 4 g/ha ([1]; 240 h, 10 DAT): 0%
inhibition at 12 g/ha [1, 5]: 10%
inhibition at 4 g/ha ([1]; 504 h, 21 DAT): 0%
inhibition at 12 g/ha [1, 6]: 10%
inhibition at 4 g/ha ([2]; 240 h, 10 DAT, dosage 4 g of ai/ha): 0%
inhibition at 12 g/ha ([2]; 240 h, 10 DAT): 0%
inhibition at 12 g/ha ([2]; 504 h, 21 DAT): 0%
inhibition at 4 g/ha (Avena fatua (AVEFA); 21 DAT, dosage 4 g of ai/ha): 10%
inhibition at 12 g/ha (Avena fatua (AVEFA); 21 DAT, dosage 12 g of ai/ha): 30%
inhibition at 4 g/ha (Oryza sativa (ORYSA); 240 h, 10 DAT): 10%
inhibition at 12 g/ha (Oryza sativa (ORYSA); 240 h, 10 DAT): 10%
inhibition at 4 g/ha (Oryza sativa (ORYSA); 504 h, 21 DAT): 0%
inhibition at 12 g/ha (Oryza sativa (ORYSA); 504 h, 21 DAT): 10%
inhibition at 4 g/ha (Zea mays (ZEAMX); 240 h, 10 DAT): 0%
inhibition at 12 g/ha (Zea mays (ZEAMX); [5]): 0%
inhibition at 4 g/ha (Zea mays (ZEAMX); 504 h, 21 DAT): 0%
inhibition at 12 g/ha (Zea mays (ZEAMX); [6]): 0%
inhibition at 4 g/ha (Viola tricolor (VIOTR); 10 DAT, dosage 4 g of ai/ha): 20%
inhibition at 12 g/ha (Viola tricolor (VIOTR); 10 DAT, dosage 12 g of ai/ha): 20%
inhibition at 4 g/ha ([3]; 21 DAT, dosage 4 g of ai/ha): 50%
inhibition at 4 g/ha ([4]; 21 DAT, dosage 4 g of ai/ha): 80%

CCOC(=O)COc1ncccc1Oc1cc(-n2c(=O)cc(C(F)(F)F)n(C)c2=O)c(F)cc1Cl [B4-6, ethyl [[3-[2-chloro-5-[3,6-dihydro-3-methyl-2,6-dioxo-4-(trifluoromethyl)-1(2H)-pyrimidinyl]-4-fluorophenoxy]-2-pyridinyl]oxy]acetate, reference compound]
inhibition at 9 g/ha ([2]; 240 h): 50%
inhibition at 3 g/ha ([2]; 504 h): 30%
inhibition at 3 g/ha (Avena fatua (AVEFA)): 0%
inhibition at 3 g/ha (Oryza sativa (ORYSA); 240 h): 40%
inhibition at 9 g/ha (Oryza sativa (ORYSA); 240 h): 40%
inhibition at 3 g/ha (Zea mays (ZEAMX); 240 h): 40%
inhibition at 3 g/ha (Zea mays (ZEAMX); 504 h): 30%
inhibition at 3 g/ha (Viola tricolor (VIOTR)): 10%
inhibition at 9 g/ha (Viola tricolor (VIOTR)): 85%
inhibition at 9 g/ha [3]: 80%
inhibition at 9 g/ha [4]: 20%
